From patent publication US11034650B2, “Compounds useful for treating a Mannheimia haemolytica or Histophilus somni infection” (Intervet Inc., priority 2016, dated 2021)
≈ marks a conversion by molar mass, not a printed value. One block for each compound: values may come before it.

Tests used:
Assay type in all cases: cell-based
[1] = test system: Mannheimia haemolytica MH 10720 (154, BRD field isolate); experiment: MIC, broth-microdilution (CLSI VET01-A4), strain MH 10720; settings: Mannheimia haemolytica strain MH 10720, broth-microdilution; unit assumed
Procedure, shortened: (§1)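 MIC recorded as the lowest drug level giving no growth visible to the naked eye, from two-fold serial dilutions. Interpretation followed VET01-S3.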

[2] = test system: Pasteurella multocida PM 12080 (IV102277-0093, BRD field isolate); experiment: MIC, broth-microdilution (CLSI VET01-A4), strain PM 12080; settings: Pasteurella multocida strain PM 12080, broth-microdilution; unit assumed
Procedure, shortened: as §1

[3] = test system: Mannheimia haemolytica MH 13065 (XB0446-6003.9, BRD field isolate); experiment: MIC, broth-microdilution (CLSI VET01-A4), strain MH 13065; settings: Mannheimia haemolytica strain MH 13065, broth-microdilution; unit assumed
Procedure, shortened: as §1

[4] = test system: Pasteurella multocida PM 10775 (080130003051, BRD field isolate); experiment: MIC, broth-microdilution (CLSI VET01-A4), strain PM 10775; settings: Pasteurella multocida strain PM 10775, broth-microdilution; unit assumed
Procedure, shortened: as §1

[5] = test system: Pasteurella multocida PM 6391 (ATCC 43137, reference strain); experiment: MIC, broth-microdilution (CLSI VET01-A4), strain PM 6391; settings: Pasteurella multocida strain PM 6391, broth-microdilution; unit assumed
Method: For example, representative compounds were tested against ***, Mannheimia haemolytica and Pasteurella multocida, using the conventional broth-dilution assay.
The Minimum inhibitory concentrations (MIC) of compounds according to the invention for a number of veterinary bacterial pathogens were determined by the broth-microdilution method according to CLSI document VET01-A4.
Microdilution trays containing a doubling dilution series of the test compound were used for the tests. The MIC results were interpreted according to the CLSI documents VET01-S3. The lowest concentration of compound at which no visible growth (i.e. no turbidity) detected by the unaided eye was recorded as the MIC.

[6] = test system: Mannheimia haemolytica MH 6374 (ATCC 33396, reference strain); experiment: MIC, broth-microdilution (CLSI VET01-A4), strain MH 6374; settings: Mannheimia haemolytica strain MH 6374, broth-microdilution; unit assumed
Procedure, shortened: as §1

[7] = test system: Mannheimia haemolytica MH 13093 (XB0472-6014.1, BRD field isolate); experiment: MIC, broth-microdilution (CLSI VET01-A4), strain MH 13093; settings: Mannheimia haemolytica strain MH 13093, broth-microdilution; unit assumed
Procedure, shortened: as §1

[8] = test system: Pasteurella multocida PM 6267 (P 2225 (L386), reference strain, mouse infection strain); experiment: MIC, broth-microdilution (CLSI VET01-A4), strain PM 6267; settings: Pasteurella multocida strain PM 6267, broth-microdilution; unit assumed
Procedure, shortened: as §1

[9] = test system: Mannheimia haemolytica MH 6357 (M7/2, reference strain, cattle infection strain); experiment: MIC, broth-microdilution (CLSI VET01-A4), strain MH 6357; settings: Mannheimia haemolytica strain MH 6357, broth-microdilution; unit assumed
Procedure, shortened: as §1

[10] = test system: Mannheimia haemolytica MH 12587 (1071, BRD field isolate, macrolide-resistance: erm+, E+); experiment: MIC, broth-microdilution (CLSI VET01-A4), strain MH 12587; settings: Mannheimia haemolytica strain MH 12587, broth-microdilution; unit assumed
Procedure, shortened: as §1

Compound: CON=C(C)[C@H](NC(=O)c1ccc(C#Cc2ccc(CNC3CCCC3)cc2)cc1)C(=O)NO [Compound 386]
MIC MH 10720 [1]: 1.6 mg/L (≈ 3.46 µM)
MIC PM 12080 [2]: 0.4 mg/L (≈ 0.865 µM)
MIC MH 13065 [3]: 12.5 mg/L (≈ 27 µM)
MIC PM 10775 [4]: 1.6 mg/L (≈ 3.46 µM)
MIC PM 6391 [5]: 0.4 mg/L (≈ 0.865 µM)
MIC MH 6374 [6]: 12.5 mg/L (≈ 27 µM)
MIC MH 13093 [7]: 12.5 mg/L (≈ 27 µM)
MIC PM 6267 [8]: 50 mg/L (≈ 108 µM)
MIC MH 6357 [9]: 12.5 mg/L (≈ 27 µM)
MIC MH 12587 [10]: 1.6 mg/L (≈ 3.46 µM)

Compound: CC(C)(C(NC(=O)c1ccc(C#Cc2ccc(CNCc3cccs3)cc2)cc1)C(=O)NO)[N+](=O)[O-] (stereo not shown) [Compound 289]
MIC MH 10720 [1]: ≤ 0.1 mg/L
MIC PM 12080 [2]: ≤ 0.1 mg/L
MIC MH 13065 [3]: 0.8 mg/L (≈ 1.58 µM)
MIC PM 10775 [4]: 0.4 mg/L (≈ 0.79 µM)
MIC PM 6391 [5]: 0.4 mg/L (≈ 0.79 µM)
MIC MH 6374 [6]: 0.8 mg/L (≈ 1.58 µM)
MIC MH 13093 [7]: 0.8 mg/L (≈ 1.58 µM)
MIC PM 6267 [8]: 0.8 mg/L (≈ 1.58 µM)
MIC MH 6357 [9]: 0.4 mg/L (≈ 0.79 µM)
MIC MH 12587 [10]: 1.6 mg/L (≈ 3.16 µM)

Compound: CC(C)(O)[C@H](NC(=O)c1ccc(C#Cc2ccc(CNC3CC3)cc2)cc1)C(=O)NO [Compound 219]
MIC MH 10720 [1]: ≤ 0.1 mg/L
MIC PM 12080 [2]: ≤ 0.1 mg/L
MIC MH 13065 [3]: 0.4 mg/L (≈ 0.949 µM)
MIC PM 10775 [4]: ≤ 0.1 mg/L
MIC PM 6391 [5]: ≤ 0.1 mg/L
MIC MH 6374 [6]: 0.4 mg/L (≈ 0.949 µM)
MIC MH 13093 [7]: 0.8 mg/L (≈ 1.9 µM)
MIC PM 6267 [8]: ≤ 0.1 mg/L
MIC MH 6357 [9]: 1.6 mg/L (≈ 3.8 µM)
MIC MH 12587 [10]: 1.6 mg/L (≈ 3.8 µM)

Compound: CC(C)(O)[C@H](NC(=O)c1ccc(C#Cc2ccc(CNCc3ccccn3)nc2)cc1)C(=O)NO [Compound 331]
MIC MH 10720 [1]: 0.4 mg/L (≈ 0.845 µM)
MIC PM 12080 [2]: 1.6 mg/L (≈ 3.38 µM)
MIC MH 13065 [3]: 3.1 mg/L (≈ 6.55 µM)
MIC PM 10775 [4]: 0.4 mg/L (≈ 0.845 µM)
MIC PM 6391 [5]: 1.6 mg/L (≈ 3.38 µM)
MIC MH 6374 [6]: 3.1 mg/L (≈ 6.55 µM)
MIC MH 13093 [7]: 6.3 mg/L (≈ 13.3 µM)
MIC PM 6267 [8]: 3.1 mg/L (≈ 6.55 µM)
MIC MH 6357 [9]: 1.6 mg/L (≈ 3.38 µM)
MIC MH 12587 [10]: 6.3 mg/L (≈ 13.3 µM)

Now from value to compound, other results behind:

MIC PM 12080 [2]: 0.8 mg/L (≈ 1.76 µM)
MIC PM 10775 [4]: ≤ 0.1 mg/L
MIC PM 6391 [5]: 0.8 mg/L (≈ 1.76 µM)
MIC PM 6267 [8]: 0.4 mg/L (≈ 0.882 µM)
Compound: CCCNCc1ccc(C#Cc2ccc(C(=O)N[C@H](C(=O)NO)C(C)(C)SC)cc2)cc1 [Compound 245]
MIC MH 10720 [1]: 0.4 mg/L (≈ 0.882 µM)
MIC MH 13065 [3]: 1.6 mg/L (≈ 3.53 µM)
MIC MH 6374 [6]: 3.1 mg/L (≈ 6.83 µM)
MIC MH 13093 [7]: 3.1 mg/L (≈ 6.83 µM)
MIC MH 6357 [9]: 3.1 mg/L (≈ 6.83 µM)
MIC MH 12587 [10]: 3.1 mg/L (≈ 6.83 µM)

MIC PM 12080 [2]: 0.4 mg/L (≈ 0.797 µM)
MIC PM 10775 [4]: ≤ 0.1 mg/L
MIC PM 6391 [5]: 0.4 mg/L (≈ 0.797 µM)
MIC PM 6267 [8]: 0.2 mg/L (≈ 0.399 µM)
Compound: CSC(C)(C)[C@H](NC(=O)c1ccc(C#Cc2ccc(CNCc3ccccc3)cc2)cc1)C(=O)NO [Compound 239]
MIC MH 10720 [1]: 0.2 mg/L (≈ 0.399 µM)
MIC MH 13065 [3]: 0.8 mg/L (≈ 1.59 µM)
MIC MH 6374 [6]: 1.6 mg/L (≈ 3.19 µM)
MIC MH 13093 [7]: 0.8 mg/L (≈ 1.59 µM)
MIC MH 6357 [9]: 0.8 mg/L (≈ 1.59 µM)
MIC MH 12587 [10]: 1.6 mg/L (≈ 3.19 µM)

MIC PM 12080 [2]: 1.6 mg/L (≈ 3.48 µM)
MIC PM 10775 [4]: ≤ 0.1 mg/L
MIC PM 6391 [5]: 3.1 mg/L (≈ 6.75 µM)
MIC PM 6267 [8]: 0.4 mg/L (≈ 0.87 µM)
Compound: CC[C@H](C)[C@H](NC(=O)c1ccc(C#Cc2ccc(CNCc3ncc[nH]3)cc2)cc1)C(=O)NO [Compound 184]
MIC MH 10720 [1]: 0.8 mg/L (≈ 1.74 µM)
MIC MH 13065 [3]: 6.3 mg/L (≈ 13.7 µM)
MIC MH 6374 [6]: 6.3 mg/L (≈ 13.7 µM)
MIC MH 13093 [7]: 6.3 mg/L (≈ 13.7 µM)
MIC MH 6357 [9]: 12.5 mg/L (≈ 27.2 µM)
MIC MH 12587 [10]: 12.5 mg/L (≈ 27.2 µM)

MIC PM 12080 [2]: 1.6 mg/L (≈ 3.17 µM)
MIC PM 10775 [4]: 0.4 mg/L (≈ 0.793 µM)
MIC PM 6391 [5]: 3.1 mg/L (≈ 6.14 µM)
MIC PM 6267 [8]: 6.3 mg/L (≈ 12.5 µM)
Compound: CSC(C)(C)[C@H](NC(=O)c1ccc(C#Cc2ccc(CNCc3ncccn3)nc2)cc1)C(=O)NO [Compound 346]
MIC MH 10720 [1]: 0.8 mg/L (≈ 1.59 µM)
MIC MH 13065 [3]: 6.3 mg/L (≈ 12.5 µM)
MIC MH 6374 [6]: 6.3 mg/L (≈ 12.5 µM)
MIC MH 13093 [7]: 12.5 mg/L (≈ 24.8 µM)
MIC MH 6357 [9]: 6.3 mg/L (≈ 12.5 µM)
MIC MH 12587 [10]: 12.5 mg/L (≈ 24.8 µM)

MIC PM 12080 [2]: ≤ 0.1 mg/L
MIC PM 10775 [4]: 0.2 mg/L (≈ 0.412 µM)
MIC PM 6391 [5]: ≤ 0.1 mg/L
MIC PM 6267 [8]: 3.1 mg/L (≈ 6.38 µM)
Compound: CON=C(C)[C@H](NC(=O)c1ccc(C#Cc2ccc(CNCc3cccnc3)cc2)cc1)C(=O)NO [Compound 388]
MIC MH 10720 [1]: 0.8 mg/L (≈ 1.65 µM)
MIC MH 13065 [3]: 0.8 mg/L (≈ 1.65 µM)
MIC MH 6374 [6]: 0.8 mg/L (≈ 1.65 µM)
MIC MH 13093 [7]: 0.8 mg/L (≈ 1.65 µM)
MIC MH 6357 [9]: 0.4 mg/L (≈ 0.824 µM)
MIC MH 12587 [10]: 0.2 mg/L (≈ 0.412 µM)

MIC PM 12080 [2]: ≤ 0.1 mg/L
MIC PM 10775 [4]: ≤ 0.1 mg/L
MIC PM 6391 [5]: ≤ 0.1 mg/L
MIC PM 6267 [8]: ≤ 0.1 mg/L
Compound: CC(C)[C@H](NC(=O)c1ccc(C#Cc2ccc(CNCc3nccs3)cc2)cc1)C(=O)NO [Compound 199]
MIC MH 10720 [1]: ≤ 0.1 mg/L
MIC MH 13065 [3]: 0.2 mg/L (≈ 0.432 µM)
MIC MH 6374 [6]: 0.4 mg/L (≈ 0.865 µM)
MIC MH 13093 [7]: 0.4 mg/L (≈ 0.865 µM)
MIC MH 6357 [9]: 0.2 mg/L (≈ 0.432 µM)
MIC MH 12587 [10]: 0.4 mg/L (≈ 0.865 µM)
